Here are results for 1 compound from article PMC6515479, “An Investigation on Glucuronidation Metabolite Identification, Isozyme Contribution, and Species Differences of GL-V9 In Vitro and In Vivo” (Molecules, 2019).

Where only a bound is given, the exact number is not on record here.

For data set [1], the system named is monkey liver microsomes (MLMs). In words: Enzyme kinetics of GL-V9 glucuronidation in monkey liver microsomes (MLMs). The data set is classed as in vitro ADME. How it is done: (§1) The composition of the incubation system (200 μL) contained liver microsomes of different species (0.1 mg protein/mL), 5 mM saccharolactone (D-saccharic acid 1,4-lactone monohydrate), 10 mM MgCl2, alamethicin (50 μg/mg protein), Tris-HCl buffer (50 mM, pH 7.4) and GL-V9 (1 μM). After 5 min of preincubation at 37 °C, UDPGA (5 mM) was added to initiate the phase II reaction. Control incubation samples were performed without UDPGA or without substrates (GL-V9). The reaction was terminated by addition of ice-cold methanol (three volumes) after incubation for 1 h at 37 °C. Samples were vortexed, centrifuged at 21,500× g for 10 min and then stored at 4 °C until HPLC-UV-TripleTOF analysis. To confirm that these metabolites are conjugates resulting from glucuronidation reaction, enzymatic hydrolysis of samples was processed. β-glucuronidase (100 KU, Sigma) was added and the hydrolysis was performed overnight at 37 °C. The control samples were carried out without β-glucuronidase under the same condition.
(§2) Enzyme kinetics experiments were carried out in triplicate among five different species, including monkey, beagle dog, rat, mouse, and human. The reaction system and operations are as same as described in Section 4.3. The solutions of GL-V9 were selected over a range of concentrations (0.05, 0.2, 0.5, 1, 2, 5, 10, 20 μM). According to the different metabolic capacity, the protein concentration of liver microsomes of different species is different as shown in Table 1.
(§3) Rates of the glucuronidation of GL-V9 were described as amounts of glucuronides formed per minute per milligram (pmol/min/mg). The calculation model of kinetic parameters was selected by the profile of Eadie-Hofstee plots. It often includes three possibilities: (1) the Eadie-Hofstee plot was linear, the formation rates of glucuronides (V) at different substrate concentrations (C) were fit to the standard Michaelis-Menten calculation of GraphPad Prism (version 6.02, GraphPad Software Inc., Guildford, Surrey, UK); (2) the Eadie-Hofstee plot was atypical kinetic-autoactivation, the rates and concentration were fit with the allosteric sigmoidal function of GraphPad Prism; (3) the Eadie-Hofstee plot was atypical kinetic-biphasic, the rates and concentration were fit with the […] of GraphPad Prism.
A general note: Liver microsomes are a subcellular fraction often used to study metabolism.

Assay in data set [2]: as above
It is filed as in vitro ADME. Particulars: monkey, liver microsomes, pH 7.4; formation of 5-O-glucuronide GL-V9; MLMs, protein 0.1 mg/mL; mean ± SD, n = 3. The method, then: as §1, §2, §3

For data set [3] the following is noted: cited from earlier work.
The subject of data set [4] is mouse liver microsomes (MiceLMs). In words: Enzyme kinetics of GL-V9 glucuronidation in mouse liver microsomes (MiceLMs). The data set is classed as in vitro ADME. Particulars: formation of 5-O-glucuronide GL-V9, protein 0.2 mg/mL, mean ± SD, n = 3. The method, then:
as §1
(§4) Enzyme kinetics experiments were carried out in triplicate among five different species, including monkey, beagle dog, rat, mouse, and human. The reaction system and operations are as same as described in Section 4.3. The solutions of GL-V9 were selected over a range of concentrations (0.05, 0.2, 0.5, 1, 2, 5, 10, 20 μM). […]

Assay in data set [5]: as above
Particulars: mouse, liver microsomes, pH 7.4, formation of 5-O-glucuronide GL-V9, protein 0.2 mg/mL, mean ± SD, n = 3. It is filed as in vitro ADME. How it is done:
as §1, §4

The next data set deals with T1, rUGT2B15 (Homo sapiens, UniProt P54855).
T1 construct: purchased Corning (Woburn, MA, USA)
T1 sequence (P54855 24-530): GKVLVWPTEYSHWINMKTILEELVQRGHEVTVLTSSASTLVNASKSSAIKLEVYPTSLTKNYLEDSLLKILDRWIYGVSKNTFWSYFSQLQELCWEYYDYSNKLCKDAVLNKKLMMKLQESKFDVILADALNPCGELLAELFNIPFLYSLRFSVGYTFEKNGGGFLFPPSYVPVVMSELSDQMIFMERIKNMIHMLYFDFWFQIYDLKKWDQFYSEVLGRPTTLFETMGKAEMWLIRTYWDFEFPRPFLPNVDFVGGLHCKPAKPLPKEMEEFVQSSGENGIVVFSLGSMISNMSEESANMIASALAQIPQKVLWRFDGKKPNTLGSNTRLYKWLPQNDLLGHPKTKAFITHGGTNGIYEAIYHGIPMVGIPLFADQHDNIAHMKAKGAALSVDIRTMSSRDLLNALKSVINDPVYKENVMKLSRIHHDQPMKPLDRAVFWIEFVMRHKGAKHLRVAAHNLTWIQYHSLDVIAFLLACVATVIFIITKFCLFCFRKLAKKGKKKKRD
In words: UGT phenotyping of GL-V9 glucuronidation, rUGT2B15. It is filed as in vitro ADME. As to conditions: GL-V9 0.5, 1, 5 μM, 37 °C, 1 h. The method, then:
as §1
(§5) Twelve human recombinant UGT isoforms (rUGT1A1, rUGT1A3, rUGT1A4, rUGT1A6, rUGT1A7, rUGT1A8, rUGT1A9, rUGT1A10, rUGT2B4, rUGT2B7, rUGT2B15, and rUGT2B17) were employed to identify the main UGT enzyme(s) responsible for glucuronidation of GL-V9 under mixture conditions as described in Section 4.3. […]

A further data set addresses T2, rUGT2B17 (Homo sapiens, UniProt O75795).
T2 construct: purchased Corning (Woburn, MA, USA)
T2 sequence (O75795 24-530): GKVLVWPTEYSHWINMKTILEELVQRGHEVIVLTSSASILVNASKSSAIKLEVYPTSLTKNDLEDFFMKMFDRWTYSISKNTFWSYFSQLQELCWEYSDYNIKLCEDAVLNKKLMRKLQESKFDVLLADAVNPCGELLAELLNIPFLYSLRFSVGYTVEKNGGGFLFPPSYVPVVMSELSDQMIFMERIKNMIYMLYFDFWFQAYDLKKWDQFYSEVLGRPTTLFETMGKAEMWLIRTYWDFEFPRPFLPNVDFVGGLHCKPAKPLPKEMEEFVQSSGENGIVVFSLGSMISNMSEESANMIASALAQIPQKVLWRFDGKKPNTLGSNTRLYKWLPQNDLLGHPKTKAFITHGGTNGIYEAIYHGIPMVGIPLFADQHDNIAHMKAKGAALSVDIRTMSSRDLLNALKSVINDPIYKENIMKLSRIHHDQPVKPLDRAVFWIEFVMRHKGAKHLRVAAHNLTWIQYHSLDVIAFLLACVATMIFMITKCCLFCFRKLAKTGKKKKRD
In words: UGT phenotyping of GL-V9 glucuronidation, rUGT2B17. It is filed as in vitro ADME. As to conditions: GL-V9 0.5, 1, 5 μM, 37 °C, 1 h. How it is done: as §1, §5

Where [6] appears, read: GL-V9 in rat plasma, oral (gavage) GL-V9 50 mg/kg, n=6, mean ± SD.
Setting [7] is: GL-V9 in rats, oral GL-V9 50 mg/kg, n=6, mean ± SD.

Take `COc1c(OCCCCN2CCCC2)cc(O)c2c(=O)cc(-c3ccccc3)oc12` [GL-V9]: in data set [1] (MLMs versus DLMs), the “Clint in MLMs relative to DLMs” value is “approximately 9 fold” and the “Glucuronidation rate in MLMs relative to DLMs” value is listed as greater than 8 fold. Besides, in data set [1] (formation of 5-O-glucuronide GL-V9, MLMs, protein 0.1 mg/mL, mean ± SD, n = 3), the maximal velocity (Vmax) is 182.5 ± 4.92 pmol/min/mg. The Km at 1 h in data set [2] was determined as 11.2 ± 0.47 µM. Besides, in data set [3] (setting [6]), the “AUC(0-t)” value was 1212.06 ± 246.47 ng·h/mL, the Cmax is recorded as 167.33 ± 50.05 ng/mL and the T1/2 is 3.08 ± 1.05 h. In addition, the “AUC(0-inf)” value in data set [3] (GL-V9 in rat plasma, oral GL-V9 50 mg/kg, n=6, mean ± SD) was 1256.04 ± 271.82 ng·h/mL. Besides, the Tmax in data set [3] (GL-V9 in rat plasma, oral GL-V9 50 mg/kg, n=6) was 18.6 to 46.2 min. In addition, the F in data set [3] (GL-V9 in rats, oral GL-V9 50 mg/kg) was 8.54%. Also, in data set [3] (setting [7]), the CL is 41.38 ± 8.84 L/h/kg, the MRT0-t is 7.70 ± 0.91 h and the Vd is 181.06 ± 63.57 L/kg. In data set [4], the Vmax was 153.2 ± 10.44 pmol/min/mg. For the same compound, in data set [5], the Michaelis-Menten constant (Km) at 1 h was 20.1 ± 1.04 µM. Besides, the “Catalytic activity in the production of 5-O-glucuronide GL-V9” value on rUGT2B15 is reported as “did not show apparent catalytic activity”. Also, the “Catalytic activity in the production of 5-O-glucuronide GL-V9” value on rUGT2B17 is on record as “did not show apparent catalytic activity”.

Broadly, the Vmax is the top rate of the reaction or transport when substrate is in excess. For orientation: Km means the concentration of substrate that gives half-maximal velocity. In general, AUC(0-t) refers to the area under the concentration-time curve up to a stated or last time point. As a reminder, the Cmax is the peak of the concentration-time curve. What is called AUC(0-inf) is total exposure, with the tail of the curve extrapolated. As a reminder, the Tmax is the time at which the peak concentration occurs.
